This is an account of results in patent publication US20040093331A1, “Computer program products, systems and methods for information discovery and relational analyses” (Board of Regents, University of Texas System, priority 2002, published 2004).

The subject of the assay is cardiac hypertrophy. As to the kind of experiment: Isoproterenol-induced cardiac hypertrophy in mice, osmotic micro-infusion pumps, echocardiography before and 7 days after start of infusion. The assay is classed as in vivo. As to the method: Validation of a relevant relationship between chlorpromazine and cardiac hypertrophy was performed through a series of laboratory studies in mice comparing the effects of a known beta-adrenergic agonist (also known to induce hypertrophy), isoproterenol, with isoproterenol plus chlorpromazine.
In brief, the study included 2 groups of 8 mice fitted with osmotic micro-infusion pumps. One group was given a continuous dose of 20 mg/kg/day isoproterenol and the other 20 mg/kg/day isopreterenol+10 mg/kg/day chlorpromazine. A smaller dose of chlorpromazine was chosen in preference to a larger one to minimize alterations in feeding behavior. Additionally, it reduced an adverse reaction between chlorpromazine and avertin (tribromoethanol), a anesthetic agent. Echocardiograms were taken before treatment and 7 days after initiation of infusions. Mice were sacrificed and their heart weighed.
FIG. 19 and TABLE 22 summarize the study findings. Generally, cardiac hypertrophy (as assessed by echocardiography) was reduced in mice treated with chlorpromazine plus isoproterenol. […] Echocardiography was use to estimate the change in weight or thickness of several different cardiac structures over the course of treatment. For FIG. 19, ten mice received isoproterenol (ISO) and eight received isoproterenol and chlorpromazine (CPZ+ISO), where LVW=left ventricle weight (CPZ+ISO 11±27%, ISO 51±43%, P<0.02); LVMI=left ventricular mass index (CPZ+ISO 11±28%, ISO 50±52%, P<0.04); PWT=posterior wall thickness (CPZ+ISO 16±16%, ISO 36±27%, P<0.05), IVSWT=intraventricular septum wall thickness (CPZ+ISO 19±18%, ISO 31±20%, P<0.12).

Consider `CN(C)CCCN1c2ccccc2Sc2ccc(Cl)cc21` [chlorpromazine], for which the “cardiac hypertrophy (as assessed by echocardiography)” value (10 mg/kg/day chlorpromazine + 20 mg/kg/day isoproterenol versus isoproterenol alone, mice) is given as “protected the mice against the development of cardiac hypertrophy”.

As to `CC(C)NCC(O)c1ccc(O)c(O)c1` (stereo not shown) [ISO, isoproterenol], for the setting “FIG. 19, change over course of treatment, echocardiography, P<0.04”, the “LVMI=left ventricular mass index” value worked out at 50±52%. Also, the “PWT=posterior wall thickness” value (FIG. 19, change over course of treatment, echocardiography, P<0.05) came out at 36±27%. The “IVSWT=intraventricular septum wall thickness” value (FIG. 19, change over course of treatment, echocardiography, P<0.12) was 31±20%. Moreover, the “LVW=left ventricle weight” value (FIG. 19, change over course of treatment, echocardiography, ten mice ISO, eight CPZ+ISO, P<0.02) was determined as 51±43%. Further, the “DI VS WT” value (Table 22, change in intraventricular septum wall thickness over treatment, echocardiography, 7 days infusion) is 31% ± 21%. The LLVW (Table 22, change in left ventricle weight over treatment, echocardiography, 20 mg/kg/day isoproterenol with or without 10 mg/kg/day chlorpromazine, 7 days) is 53% ± 45%. Besides, the OLVMI (Table 22, change in left ventricular mass index over treatment, echocardiography, 7 days infusion) was 50% ± 55%. The OPWT (Table 22, change in posterior wall thickness over treatment, echocardiography, 7 days infusion) is reported as 36% ± 28%.

Consider `C=CCN1CC[C@]23c4c5ccc(O)c4O[C@H]2C(=O)CC[C@@]3(O)[C@H]1C5` [Naloxone], for which the “effect of the drug in a mouse model of cardiohypertrophy” value (mouse model as described for chlorpromazine, values not given) is listed as “validated in vivo”.
